Experimental data from PMC3117970 (ACS chemical biology, 2011).
Like-named read-outs stand apart in the source and are kept apart here.

Columns and labels:
human RAD54 = molecular target: T1, human RAD54 (Homo sapiens, UniProt Q92698); experiment: DNA branch migration assay for RAD54; type: biochemical; details: concentrations from 0 to 200 μM
T1 sequence (Q92698 1-747): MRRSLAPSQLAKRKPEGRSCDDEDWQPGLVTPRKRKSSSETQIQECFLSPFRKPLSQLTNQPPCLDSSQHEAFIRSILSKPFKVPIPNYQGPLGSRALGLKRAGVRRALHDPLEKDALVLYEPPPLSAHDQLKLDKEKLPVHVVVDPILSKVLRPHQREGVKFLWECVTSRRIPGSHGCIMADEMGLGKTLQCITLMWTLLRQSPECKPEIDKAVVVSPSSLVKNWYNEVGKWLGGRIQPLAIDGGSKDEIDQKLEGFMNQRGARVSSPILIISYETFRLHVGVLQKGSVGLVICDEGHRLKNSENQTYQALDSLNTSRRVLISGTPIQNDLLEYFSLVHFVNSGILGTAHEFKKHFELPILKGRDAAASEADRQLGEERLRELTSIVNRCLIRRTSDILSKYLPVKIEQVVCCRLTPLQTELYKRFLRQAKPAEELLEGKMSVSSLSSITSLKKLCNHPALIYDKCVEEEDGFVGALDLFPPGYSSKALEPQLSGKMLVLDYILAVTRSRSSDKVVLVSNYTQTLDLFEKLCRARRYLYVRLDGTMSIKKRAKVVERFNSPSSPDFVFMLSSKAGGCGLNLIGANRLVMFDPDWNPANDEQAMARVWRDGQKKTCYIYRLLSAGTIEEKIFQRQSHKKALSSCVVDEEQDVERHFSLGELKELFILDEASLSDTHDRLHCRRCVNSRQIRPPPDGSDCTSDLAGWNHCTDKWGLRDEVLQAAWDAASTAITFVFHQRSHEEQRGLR

RecA = RecA (Escherichia coli, UniProt P0A7G6)
human RAD51 = molecular target: T2, human RAD51 (Homo sapiens, UniProt Q06609); experiment: D-loop assay for RAD51; type: biochemical; details: B02 derivatives 50 μM
T2 sequence (Q06609 2-339 limits assumed): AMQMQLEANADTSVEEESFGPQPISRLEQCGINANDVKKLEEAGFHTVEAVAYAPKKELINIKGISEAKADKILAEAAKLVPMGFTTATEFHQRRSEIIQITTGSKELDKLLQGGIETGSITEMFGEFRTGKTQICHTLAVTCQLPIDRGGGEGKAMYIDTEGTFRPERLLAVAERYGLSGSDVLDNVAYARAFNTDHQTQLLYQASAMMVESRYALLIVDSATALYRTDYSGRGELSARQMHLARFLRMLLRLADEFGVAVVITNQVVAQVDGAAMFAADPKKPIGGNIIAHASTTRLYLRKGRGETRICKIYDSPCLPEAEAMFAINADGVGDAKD

Sequence of RecA (P0A7G6 2-353): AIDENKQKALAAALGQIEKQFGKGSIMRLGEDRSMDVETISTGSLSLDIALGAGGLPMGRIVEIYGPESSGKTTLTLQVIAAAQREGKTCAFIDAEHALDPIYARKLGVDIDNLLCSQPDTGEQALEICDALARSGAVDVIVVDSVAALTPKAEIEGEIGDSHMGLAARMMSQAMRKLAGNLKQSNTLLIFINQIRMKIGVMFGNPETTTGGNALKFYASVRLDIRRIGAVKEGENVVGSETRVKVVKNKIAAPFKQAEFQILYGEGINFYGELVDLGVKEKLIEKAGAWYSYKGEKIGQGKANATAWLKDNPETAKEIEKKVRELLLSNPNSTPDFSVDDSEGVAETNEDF

Row | Compound | inhibitory effect on DNA strand exchange activity of RAD51 (D-loop assay) (human RAD51) | inhibition of RecA DNA strand exchange (RecA; concentrations up to 100 μM) | other results
1 | O=c1c2ccccc2nc(/C=C/c2cccnc2)n1Cc1ccccc1 [B02] |  |  | inhibition of RAD54 branch migration activity (human RAD54): did not significantly inhibit; IC50 (RecA; read-out: IC50 for RecA, D-loop assay, RecA 1 μM): > 250 µM; inhibition of RecA DNA strand exchange (RecA; up to 250 μM of compound): did not observe any significant inhibition
2 | Cc1cccc(-n2c(/C=C/c3cccnc3)nc3ccccc3c2=O)c1 [B02-3b] | retain the inhibitory effect | do not inhibit | 
3 | Cn1c(C=Cc2cccnc2)nc2ccccc2c1=O [B02-3e] | eliminates the inhibition |  | 
4 | Cc1ccc(-n2c(C=Cc3cccnc3)nc3ccccc3c2=O)cc1 [B02-3c] | eliminates the inhibition |  | 
5 | CCn1c(C=Cc2cccnc2)nc2ccccc2c1=O [B02-3a] | retain the inhibitory effect | do not inhibit | 
6 | O=c1c2ccccc2nc(C=Cc2cccnc2)n1-c1ccccc1 [B02-3d] | eliminates the inhibition |  | 
